Laboratory results reported in US8637665B2, “Pyrrolo[2,L-C][L,4]benzodiazepine-benzothiazole or benzoxazole conjugates linked through piperazine moiety and process for the preparation thereof” (priority 2010, dated 2014).
Where two headings read alike, the source gives them in different places.

How the values were obtained:
[1] = system: duplex-form calf thymus DNA (CT-DNA); test: Thermal denaturation studies with calf thymus DNA (DNA binding affinity); details: [PBD]:[DNA] 1:5, CT-DNA 100 μM, ligand 20 μM, pH 7.00
Protocol: Compounds have been subjected to thermal denaturation studies with duplex-form calf thymus DNA (CT-DNA) using an modification of a reported procedure (Newman, M. S. Carcinog-compr. Surv. 1976,1, 203; (b) Hecht, S. S.; Loy, M.; Hoffman, Carcinog-compr. Surv. 1976, 1, 325). Working solutions in aqueous buffer (10 mM NaH2PO4/Na2HPO4, 1 mM Na2EDTA, pH 7.00+0.01) containing CT-DNA (100 μm in phosphate) and the PBD (20 μm) have been prepared by addition of concentrated PBD solutions in DMSO to obtain a fixed [PBD]/[DNA] molar ratio of 1:5. The DNA-PBD solutions have been incubated at 37° C. for 0 and 18 h prior to analysis. Samples have been monitored at 260 using a Beckman DU-800 spectrophotometer fitted with high performance temperature controller, and heated at 1° C. min^−1 in the 40-110° C. range. DNA helix→coil transition temperatures (Tm) have been obtained from the maxima in the d(A260)/dT derivative plots. Drug-induced alterations in DNA melting behavior are given by: ΔTm=Tm(DNA+PBD)−Tm(DNA alone), where the Tm value for the PBD-free CT-DNA is 69.1±0.01.
The DNA binding activity for these novel C8-linked benzothiazole, benzoxazole-PBD hybrids has been examined by thermal denaturation studies using calf thymus (CT) DNA. […] The data for the compounds 9a-n is included in Table 7 for comparison.

[2] = system: A 2780 (ovary cancer) cell line; test: cells; assay type: cell-based; details: for GI50: mean of three determinations; for CC50: read-out: LC50 A 2780, 50% cell death
Protocol: (§1) Anticancer activity: In vitro biological activity studies were carried out at the Advance Center for Treatment Research & Education in Cancer (ACTREC), Navi Mumbai.
(§2) The compounds were evaluated for in vitro anticancer activity against eight tumour cells lines derived from seven cancer types (non-small-cell lung, colon, oral, cervix, ovarian, prostate, and breast cancer) as shown in Table 2. For each compound, dose response curves for each cell line were measured at a minimum of five concentrations at 10 fold dilutions. A protocol of 48 h continuous drug exposure was used and a sulforhodamine B (SRB) protein assay was used to estimate cell viability or growth. The concentration causing 50% cell growth inhibition (GI50) and 50% cell death (LC50, −50% growth) compared with the control was calculated. Compounds 9a-9l have been evaluated for their in vitro cytotoxicity in eight cell lines from seven human cancer types of lung (Hop-62, A-549) colon (COLO-205) cervix (Si—Ha), ovary (A-2780), prostate (PC3) breast (MCF7), oral (KB). The results are expressed as percent of cell growth determined relative to that of untreated control cells (Table-8 and table-9).

[3] = system: A 549 (lung cancer) cell line; test: cells; assay type: cell-based; details: for GI50: mean of three determinations
Protocol: as §1, §2

[4] = system: Colo 205 (colon cancer) cell line; test: cells; assay type: cell-based; details: for GI50: mean of three determinations; for CC50: read-out: LC50 Colo 205
Protocol: as §1, §2

[5] = system: HOP 62 (lung cancer) cell line; test: cells; assay type: cell-based; details: for GI50: mean of three determinations; for LC50: read-out: LC50 HOP 62, 50% cell death
Protocol: as §1, §2

[6] = system: MCF 7 (breast cancer) cell line; test: cells; assay type: cell-based; details: for GI50: read-out: GI50 MCF 7; for LC50 (concentration causing 50% cell death): read-out: LC50 MCF 7, 50% cell death
Protocol: as §1, §2

[7] = system: PC 3 (prostate cancer) cell line; test: cells; assay type: cell-based; details: for GI50: read-out: GI50 PC 3; for CC50: read-out: LC50 Pc 3, 50% cell death
Protocol: as §1, §2

[8] = system: SiHa (cervix cancer) cell line; test: cells; assay type: cell-based; details: for GI50: mean of three determinations; for LC50 (concentration causing 50% cell death): read-out: LC50 SiHa, 50% cell death
Protocol: as §1, §2

[9] = system: KB (oral cancer) cell line; test: In vitro anticancer activity, SRB assay, KB; assay type: cell-based, human; details: for GI50: mean of three determinations; for CC50: read-out: LC50 KB, 50% cell death
Protocol: as §1, §2

[10] = system: eight tumour cells lines derived from seven cancer types; test: In vitro anticancer activity, SRB assay, panel of eight cell lines; assay type: cell-based; details: Homo sapiens, range over the eight cell lines per compound; read-out: GI50 range against cancer cell lines
Protocol: as §1, §2

[11] = Homo sapiens, A2780, 48 h, read-out: GI50 A 2780, 48 h drug exposure, SRB
[12] = Homo sapiens, A2780, 48 h, 48 h drug exposure, SRB
[13] = Homo sapiens, A549, 48 h, read-out: GI50 A 549, 48 h drug exposure, SRB
[14] = Homo sapiens, A549, 48 h, read-out: LC50 A 549, 50% cell death, 48 h drug exposure, SRB
[15] = Homo sapiens, COLO 205, 48 h, read-out: GI50 Colo 205, 48 h drug exposure, SRB
[16] = Homo sapiens, HOP-62, 48 h, read-out: GI50 HOP 62, 48 h drug exposure, SRB
[17] = Homo sapiens, HOP-62, 48 h, 48 h drug exposure, SRB
[18] = Homo sapiens, MCF7, 48 h, 48 h drug exposure, SRB
[19] = Homo sapiens, 48 h, 48 h drug exposure, SRB
[20] = Homo sapiens, SiHa, 48 h, read-out: GI50 SiHa, 48 h drug exposure, SRB
[21] = Homo sapiens, SiHa, 48 h, 48 h drug exposure, SRB
[22] = Homo sapiens, 48 h, read-out: GI50 KB, 48 h drug exposure, SRB
[23] = read-out: GI50 HOP 62, 48 h drug exposure, SRB
[24] = 48 h drug exposure, SRB, mean of three determinations

| SMILES | ΔTm after incubation at 37° C. for 0 h [1] | ΔTm after incubation at 37° C. for 18 h [1] | GI50 [2, 11] | CC50 [2, 12] | GI50 [3, 13] | CC50 [3, 14] | GI50 [4, 15] | CC50 ([4]; Homo sapiens, COLO 205, 48 h) | GI50 [5, 16] | LC50 [5, 17] | GI50 ([6]; Homo sapiens, MCF7, 48 h) | LC50 (concentration causing 50% cell death) [6, 18] | GI50 ([7]; Homo sapiens, 48 h) | CC50 [7, 19] | GI50 [8, 20] | LC50 (concentration causing 50% cell death) [8, 21] | GI50 [9, 22] | CC50 [9, 19] | GI50 [10] | further results |
| --- | --- | --- | --- | --- | --- | --- | --- | --- | --- | --- | --- | --- | --- | --- | --- | --- | --- | --- | --- | --- |
| COc1cc2c(cc1OCCCN1CCN(CCCOc3cccc(-c4nc5ccccc5s4)c3)CC1)N=C[C@@H]1CCCN1C2=O [Compound 9d, 7-Methoxy-8-[3-(4-{3-[3(1,3-benzothiazol-2-yl)-phenoxy]propyl}piperazin-1-yl)propyl]oxy-(11aS)-1,2,3,11a-tetrahydro-5H-pyrrolo[2,1-c][1,4]benzodiazepin-5-one] | 11.2 °C | 11.5 °C | 99 nM | 2400 nM | < 10 nM | > 100 µM | 110 nM | > 100 µM | < 10 nM | 27 µM | 10 nM | 2100 nM | < 10 nM | 28 µM | 120 nM | 26 µM | 110 nM | 2300 nM | ≤ 120 nM |  |
| COc1cc2c(cc1OCCCN1CCN(CCCOc3ccc(-c4nc5ccccc5s4)cc3)CC1)N=C[C@@H]1CCCN1C2=O [Compound 9a] | 10.2 °C | 10.8 °C | 108 nM | 23000 nM | 130 nM | > 100 µM | 100 nM | > 100 µM | 100 nM | 27 µM | < 10 nM | 1900 nM | 120 nM | 28 µM | 130 nM | 27.5 µM | 120 nM | 2400 nM | ≤ 130 nM |  |
| COc1cc2c(cc1OCCCN1CCN(CCCOc3cccc(-c4nc5ccccc5o4)c3)CC1)N=C[C@@H]1CCCN1C2=O [Compound 9k, 7-Methoxy-8-[3-(4-{3-[3(1,3-benzoxazol-2-yl)-phenoxy]propyl}piperazin-1-yl)propyl]oxy-(11aS)-1,2,3,11a-tetrahydro-5H-pyrrolo[2,1-c][1,4]benzodiazepin-5-one] | 9.7 °C | 10.2 °C | 86 nM | 2160 nM | < 10 nM | > 100 µM | 170 nM | > 100 µM |  | 25 µM | < 10 nM | 2600 nM | < 10 nM | 26 µM | 130 nM | 27.8 µM | 110 nM |  | ≤ 170 nM | GI50 [5, 23]: 10 nM |
| COc1cc2c(cc1OCCCN1CCN(CCCOc3ccc(-c4nc5ccc(F)cc5s4)cc3)CC1)N=C[C@@H]1CCCN1C2=O [Compound 9c] | 10.3 °C | 10.7 °C | 116 nM | 2300 nM | < 10 nM | 33 µM | 130 nM | > 100 µM | 110 nM | 29 µM | < 10 nM | 170 nM | 110 nM | 2.3 µM | 130 nM | 27 µM | 110 nM | 26000 nM | ≤ 130 nM |  |
| COc1cc2c(cc1OCCCCN1CCN(CCCCOc3ccc(-c4nc5ccccc5s4)cc3)CC1)N=C[C@@H]1CCCN1C2=O [Compound 9l, 7-Methoxy-8-[4-(4-{4-[4(1,3-benzothiazol-2-yl)-phenoxy]butyl}piperazin-1-yl)butyl]oxy-(11aS)-1,2,3,11a-tetrahydro-5H-pyrrolo[2,1-c][1,4]benzodiazepin-5-one] | 11.5 °C | 11.8 °C |  | 2100 nM |  |  |  | > 100 µM |  |  |  | 160 nM |  | 2.1 µM |  | 28 µM |  | 2000 nM | ≤ 125 nM | GI50 ([2]; read-out: GI50 A 2780, 48 h drug exposure, SRB): 99 nM; CC50 ([3]; human, 48 h): 30 µM; GI50 ([3]; read-out: GI50 A 549, 48 h drug exposure, SRB): < 10 nM; GI50 ([4]; read-out: GI50 Colo 205, 48 h drug exposure, SRB): < 10 nM; CC50 ([5]; human, 48 h): 2500 nM; GI50 [5, 23]: 110 nM; GI50 [6, 24]: < 10 nM; GI50 [7, 24]: < 10 nM; GI50 ([8]; read-out: GI50 SiHa, 48 h drug exposure, SRB): 125 nM; GI50 ([9]; 48 h drug exposure, SRB, listed as 91, read-out: GI50 KB): 110 nM; GI50 ([9]; 48 h drug exposure, SRB, read-out: GI50 KB): 110 nM |
| COc1cc(-c2nc3ccccc3o2)ccc1OCCCN1CCN(CCCOc2cc3c(cc2OC)C(=O)N2CCC[C@H]2C=N3)CC1 [Compound 9j] | 10.1 °C | 10.3 °C | < 10 nM | 139 nM | < 10 nM | > 100 µM | 110 nM | > 100 µM | < 10 nM | 2.3 µM | < 10 nM | < 10 nM | < 10 nM | 2.5 µM | < 10 nM | 28 µM | < 10 nM | 200 nM | ≤ 110 nM |  |
| COc1cc2c(cc1OCCCCN1CCN(CCCCOc3ccc(-c4nc5ccc(F)cc5s4)cc3)CC1)N=C[C@@H]1CCCN1C2=O [Compound 9g, 7-Methoxy-8-[4-(4-{4-[4(6-fluoro-1,3-benzothiazol-2-yl)-phenoxy]butyl}piperazin-1-yl)butyl]oxy-(11aS)-1,2,3,11a-tetrahydro-5H-pyrrolo[2,1-c][1,4]benzodiazepin-5-one] | 12.3 °C | 12.6 °C | 147 nM | 2250 nM | < 10 nM | > 100 µM | 100 nM | > 100 µM | 160 nM | > 100 µM | 140 nM | 2400 nM | 160 nM | 31 µM | 168 nM | 0.311 µM | 160 nM | > 100000 nM | ≤ 168 nM |  |
